Experimental data from patent US12350250B2, “Aggrelytes for treating ocular conditions” (The Regents of the University of Colorado, a Body Corporate, priority 2022, dated 2025).

What was measured:
mouse lenses [1] = test: Stiffness of ex vivo mouse lenses (Example 18); parameters: species or system mouse (C57BL/6J); settings: 1 mM, 24 hours, ex vivo mouse lenses (3-6 months old); not significant
Procedure: In this example, the lenses were dissected from the eyes of mice (C57BL/6J, 3-6 months old, Jackson Laboratories, Stock No. 000664) by a posterior approach and incubated without (“Control”) or with Aggrelyte-2 or Aggrelyte-2A (1 mM) for 24 hours in serum-free and phenol-red-free MEM (297 mOsm) at 37° C. Lens stiffness was measured as in Example 10, except that the load was applied at 50 mg increments.

mouse lenses [2] = test: Acetylated proteins in ex vivo treated mouse lenses (Western blot, Example 19); settings: 1 mM, 24 hours
Procedure: The lenses from Example 18 were homogenized using N2-bubbled 50 mM phosphate buffer, pH 7.4 (0.4 mL per lens), in a hand-held motorized homogenizer. The homogenate was centrifuged at 20,000×g for 20 minutes at 4° C. The resulting supernatant was collected, and its protein content was measured using BCA Protein Assay Kit using BSA as the standard. The soluble protein was subjected to 12% SDS-PAGE under denaturing conditions and the proteins were electrophoretically transferred to a nitrocellulose membrane and blocked with 5% nonfat dry milk. The membrane was then incubated with a monoclonal antibody against N-acetyllysine (AcK antibody @ 1:5,000 dilution; Cell Signaling Technology Catalog #9681S) for 16 hours, followed by horseradish peroxidase (HRP)-conjugated goat anti-mouse IgG (1:5,000 dilution; Cell Signaling Technology Catalog #7076S) for 1 hour. Chemiluminescence was detected using the Enhanced Chemiluminescence Detection Kit. The membrane was stained with Ponceau-S to visualize the proteins and normalize acetyllysine (AcK)-bearing protein to total protein load.

human lenses [3] = test: Stiffness of ex vivo human lenses (Example 22); settings: 250 μM, 48 hours
Procedure: To test the effects of Aggrelyte-2 and Aggrelyte-2A on human lenses (age: 47-67 years), lenses were incubated in media containing freshly dissolved aggrelyte (250 μM) for 48 hours, with aggrelyte replacement after 24 hours. One lens from each donor pair was treated with aggrelyte, while the other was used as the control. After incubation, lens stiffness was measured, as described above in Example 20.

human lenses [4] = test: Acetylated proteins in ex vivo treated human lenses (Example 23); settings: 250 μM, 48 hours
Procedure: Each lens from Example 21 was decapsulated and homogenized in N2-bubbled 50 mM phosphate buffer, pH 7.4 (1.5 mL per lens), in a hand-held glass homogenizer. The sample was processed and evaluated for protein content as described in Example 19.

mouse lenses [5] = settings: 40 mM topical twice daily for four weeks, mice
Procedure: A 40 mM solution of Aggrelyte-2A was prepared in a liquid formulation that consisted of benzalkonium chloride (0.001%), NaH2PO4·H2O (0.269%), Na2HPO4 (0.433%), hypromellose (0.2%), and NaCl (0.5%). Aggrelyte-2A in the formulation (5 μl) was applied to the right eye twice daily (8 AM and 4 PM) to unanesthetized animals for four weeks. The left eye received only the formulation (5 μl) (“Vehicle” or “Control”). After treatment, the animals were euthanized by CO2 asphyxiation. The eyes were enucleated, and the lenses were removed immediately by a posterior approach and placed in fresh PBS. The stiffness of the lenses was measured using a computer-controlled lens squeezer. The AcK-bearing protein levels of the lenses were measured by Western blotting. The protein-thiol content of the lenses was measured using a Thiol Quantification Assay Kit from Abcam, using reduced GSH as the standard.

αA-crystallin (αAC) = target: T1, αA-crystallin (αAC) (Homo sapiens, UniProt P02489); test: Relative protein acetylation capability on recombinant αAC; assay type: biochemical; settings: 500 μM acetylating agent, αAC 3 mg/mL, 24 hours, 37° C.
T1 sequence (P02489 1-173): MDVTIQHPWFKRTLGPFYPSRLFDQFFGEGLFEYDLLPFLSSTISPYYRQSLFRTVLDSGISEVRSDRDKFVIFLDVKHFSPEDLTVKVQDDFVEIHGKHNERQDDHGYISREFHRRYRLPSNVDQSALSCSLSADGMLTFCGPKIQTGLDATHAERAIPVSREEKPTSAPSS
Procedure: The relative ability of Aggrelyte-2 to acetylate lysine residues in proteins was investigated using αA-crystallin (αAC). Human recombinant αAC (3 mg/mL PBS) was incubated in 50 mM sodium phosphate buffer, pH 7.4, for 24 hours at 37° C. while shaking without or with 500 μM acetylating agent (Aggrelyte-2, acetyl-CoA, acetic anhydride, or aspirin), dialyzed against PBS for 24 hours at 4° C.

WI proteins (human lens) = test: Relationship between protein acetylation and solubility: WI proteins treated with acetic anhydride or Aggrelyte-2; assay type: biochemical
Source text: To determine whether protein acetylation alone contributed to lens protein solubility, the soluble protein levels in WI proteins treated with acetic anhydride and Aggrelyte-2 were compared.

COC(=O)[C@H](CSC(C)=O)NC(=O)CC(C)(C)C [Aggrelyte-2A, methyl S-acetyl-N-(3,3,-dimethylbutanoyl)-L-cysteinate]
reduction of lens stiffness (mouse lenses [1]): approximately 20% | density of acetyl-bearing proteins, % increase compared to Aggrelyte-2 (mouse lenses [2]): at least 50% | density of acetyl-bearing proteins, fold increase compared to untreated control lenses (mouse lenses [2]): 5 fold | reduction of lens stiffness compared to vehicle-treated lenses (human lenses [3]; ex vivo human lenses (47-67 years)): approximately 15% | significance of stiffness reduction at 2000-mg load (human lenses [3]; ex vivo human lenses, 2000-mg load (p<0.05)): significant | increase in density of acetyl-bearing proteins compared to control lenses (human lenses [4]): approximately 5% | increase in protein thiol content compared to vehicle-treated lenses (mouse lenses [5]): approximately 8% | reduction of lens stiffness compared to vehicle-treated lenses (mouse lenses [5]; 200-mg load): approximately 12% | increase in density of AcK-bearing proteins compared to vehicle-treated lenses (mouse lenses [5]; Western blot): approximately 10% | reduction in stiffness at 400- and 500-mg loads (mouse lenses [5]; relative to 200-mg load result): similar

CC(=O)OC(C)=O [acetic anhydride]
acetylating potency, fold higher than Aggrelyte-2 (αA-crystallin (αAC)): ~21 fold | rank order of acetylating agents (αA-crystallin (αAC)): most potent acetylating agent | acetylation of WI proteins, comparison (WI proteins (human lens)): better acetylating agent than Aggrelyte-2

CC(=O)SCCNC(=O)CCNC(=O)[C@H](O)C(C)(C)COP(=O)(O)OP(=O)(O)OC[C@H]1O[C@@H](n2cnc3c(N)ncnc32)[C@H](O)[C@@H]1OP(=O)(O)O [acetyl-CoA]
rank order of acetylating agents (αA-crystallin (αAC)): followed by Aggrelyte-2, aspirin, and acetyl-CoA

CC(=O)Oc1ccccc1C(=O)O [aspirin]
rank order of acetylating agents (αA-crystallin (αAC)): followed by Aggrelyte-2, aspirin, and acetyl-CoA
